Experimental data from US6127336A, “Antibacterial and antifungal peptide” (priority 1996, dated 2000).
No end group written: not given here.

How the values were obtained:
Format in all cases: cell-based
Escherichia coli D22 = assay: Antibacterial activity by microspectrophotometry; settings: Escherichia coli D22, Gram -; 24 hours at 25° C., absorbance at 600 nm
Procedure: (§1) Pure each strain of bacteria used (E. coli; M. luteus), an isolated […] is suspended in 10 ml of DIFCO PB medium (Poor Broth, Luria Bertani medium free of yeast extract) and incubated at 30° C. overnight with slow stirring.
(§2) The bacteria to be tested are brought to an optical density at 600 nm of 0.001 in fresh culture medium. 10 μl of each fraction is deposited in microtitration plates in the presence of 100 μl of the bacterial suspension. After incubation for 24 hours at 25° C., the growth is evaluated by measuring the absorbance at 600 nm using a microtitration plate reader.

Escherichia coli D31 = assay: Antibacterial activity by microspectrophotometry; settings: Escherichia coli D31, Gram -; 24 hours at 25° C., absorbance at 600 nm
Procedure: as §1, §2

Micrococcus luteus = assay: Antibacterial activity by microspectrophotometry
Procedure: as §1, §2

Aerococcus viridans = assay: Antibacterial activity by microspectrophotometry; settings: Gram +, 24 hours at 25° C., absorbance at 600 nm
Bacillus subtilis = assay: Antibacterial activity by microspectrophotometry; settings: Gram +, 24 hours at 25° C., absorbance at 600 nm
Staphylococcus aureus = assay: Antibacterial activity by microspectrophotometry; settings: Gram +, 24 hours at 25° C., absorbance at 600 nm
[1] = system: Clavibacter michiganensis; assay: Antibacterial activity by microspectrophotometry
Procedure: as §1, §2
(§3) Using the same protocol but with phytopathogenic bacteria, the following results are obtained: […]

Salmonella typhimurium = assay: Antibacterial activity by microspectrophotometry; settings: Gram -, 24 hours at 25° C., absorbance at 600 nm
Pseudomonas maculicola = assay: Antibacterial activity, phytopathogenic bacteria; settings: same protocol
Procedure: as §1, §2, §3

Pseudomonas syr phaseoli = assay: Antibacterial activity, phytopathogenic bacteria; settings: same protocol
Procedure: as §1, §2, §3

[2] = system: Pseudomonas syringae pv syringae; assay: Antibacterial activity, phytopathogenic bacteria; settings: same protocol
Procedure: as §1, §2, §3

Pseudomonas syringae = assay: Antibacterial activity, phytopathogenic bacteria; settings: same protocol
Procedure: as §1, §2, §3

Pseudomonas valerianella = assay: Antibacterial activity, phytopathogenic bacteria; settings: same protocol
Procedure: as §1, §2, §3

[3] = system: Xanthomonas campestris pv campestris; assay: Antibacterial activity, phytopathogenic bacteria; settings: same protocol
Procedure: as §1, §2, §3

Xanthomonas phaseolica = assay: Antibacterial activity, phytopathogenic bacteria; settings: same protocol
Procedure: as §1, §2, §3

[4] = system: Xanthomonas vesicatoria 687.3; assay: Antibacterial activity, phytopathogenic bacteria; settings: same protocol
Procedure: as §1, §2, §3

[5] = system: Xanthomonas vesicatoria B229RI; assay: Antibacterial activity, phytopathogenic bacteria; settings: same protocol
Procedure: as §1, §2, §3

Alternaria dauci = assay: Antifungal activity, phytopathogenic fungi
Procedure: as §1, §2
(§4) Using the same protocol but with phytopathogenic fungi, the following results are obtained: […]

Botrytis petuniae = assay: Antifungal activity, phytopathogenic fungi
Procedure: as §1, §2, §4

Fusarium oxysporum L = assay: Antifungal activity, phytopathogenic fungi
Procedure: as §1, §2, §4

[6] = system: Fusarium oxysporum meloni; assay: Antifungal activity, phytopathogenic fungi
Procedure: as §1, §2, §4

Stemphyllium = assay: Antifungal activity, phytopathogenic fungi
Procedure: as §1, §2, §4

Verticilium toreillis = assay: Antifungal activity, phytopathogenic fungi
Procedure: as §1, §2, §4

bovine red blood cells = assay: Hemolytic test; settings: synthetic molecule
Procedure: (§5) All of the antibacterial and hemolytic tests are carried out with the synthetic molecule.

porcine red blood cells = assay: Hemolytic test; settings: synthetic molecule
Procedure: as §5

[7] = medium supplemented with 1 mM CaCl2 and 20 mM KCl

“androctonine (RSVCRQIKICRRRGGCYYLCTNRPY; disulfide (positions not given here)) [peptide from scorpion Androctonus australis hemolymph; 4 cysteine residues in two intramolecular disulfide bridges; tests done with the synthetic molecule]” showed an MIC (Escherichia coli D22) greater than 30 µM, an MIC (Escherichia coli D31) of 3 to 6 µM and an MIC (Micrococcus luteus; Micrococcus luteus, Gram +, 24 hours at 25° C., absorbance at 600 nm) of 0.6 to 1.5 µM. For the same substance, the “antibacterial activity of synthetic molecule compared with native molecule” value (Micrococcus luteus; bacterium Micrococcus liteus, synthetic (FMOC, renatured) vs native) was “same antibacterial activity as the native molecule”, the MIC (Aerococcus viridans) was 0.3 to 0.6 µM and the MIC (Bacillus subtilis) was 1.5 to 3.0 µM. For the same substance, the MIC (Staphylococcus aureus) was 15 to 30 µM, the MIC ([1]; Clavibacter michi ganensis, Gram +, Table 1, 24 hours at 25° C., absorbance at 600 nm) was 6 to 15 µM and the MIC ([1]; Clavibacter michiganensis, Table 2, phytopathogenic bacteria, same protocol) was 6 to 15 µM. For the same substance, the MIC (Salmonella typhimurium) was 3 to 6 µM, the MIC (Pseudomonas maculicola) was 3 to 6 µM and the MIC (Pseudomonas syr phaseoli) was 2 to 4 µM. It also gave an MIC [2] of 15 to 22 µM, an MIC (Pseudomonas syringae) of 0.5 to 1 µM and an MIC (Pseudomonas valerianella) of 15 to 22 µM. It also gave an MIC [3] of 3 to 6 µM, an MIC (Xanthomonas phaseolica) of 1 to 2 µM and an MIC [4] of 1.5 to 3 µM. For the same substance, the MIC [5] was 1.5 to 3 µM, the MIC with salts (Alternaria dauci; [7]) was 16 to 32 µM and the MIC without salts (Alternaria dauci; without salts) was 4.1 to 8.2 µM. The MIC with salts (Botrytis petuniae; [7]) was greater than 32 µM, the MIC without salts (Botrytis petuniae; without salts) was 4 to 8 µM and the MIC with salts (Fusarium oxysporum L; [7]) was greater than 32 µM. The MIC without salts (Fusarium oxysporum L; without salts) was 2 to 4 µM, the MIC without salts [6] was 2 to 4 µM and the MIC with salts (Stemphyllium; [7]) was 16 to 32 µM. The MIC without salts (Stemphyllium; without salts) was 4 to 8 µM, the MIC with salts (Verticilium toreillis; [7]) was greater than 32 µM and the MIC without salts (Verticilium toreillis; without salts) was 2 to 4 µM. The “lytic effect on red blood cells” value (bovine red blood cells) was “no lytic effect” and the “lytic effect on red blood cells” value (porcine red blood cells) was “no lytic effect”.
